Experimental data as given in US5736565A, “Therapeutic compounds suitable for the treatment of diseases connected with glutathione deficiency, process for their preparation, and pharmaceutical compositions containing same” (Prospa B.V., priority 1992, dated 1998).
Several values for one entry are separate records, joined by “and”; a condition that tells them apart may be missing. Equal entries are not always repeated. Entries after “also recorded” stand apart in the source; their conditions may differ. Peptide text beside a SMILES is read from it.

How the values were obtained:
[1] = test system: serum antibodies versus ram erythrocytes; test: Immunization tests versus ram erythrocytes in rat immunodepressed by cyclophosphamide (CTX); assay type: in vivo, Sprague-Dawley rats; details: for serum antibodies level (agglutination, Days from immunization): 600 mg/kg i.p. + CTX
Procedure: (§1) Sprague-Dawley rats (Charles River, Calco (CO)), aged 10 weeks (young adults) and 24 months (old), were stabled under standard conditions (24°±1° C., 12 h light/dark cycle, free access to food and water). Handlings were made in such a way as to avoid stressful stimuli.
(§2) The animals were stabled in groups of 6 per cage and treated for 2 weeks (15 days) with a PSC daily dose of 600 mg/kg by intraperitoneal route (i.p.).
Immunization tests versus ram erythrocytes in Sprague-Dawley rat immunodepressed by cyclophosphamide (CTX)
0.3 Milliliters of ram erythrocytes (3%) in 0.9% sodium chloride solution were injected to Sprague-Dawley rats, both young (aged 10 weeks, weighing 150-200 g) and old (aged 24 months). A second injection was made on the 21st day after the first one. The rats were treated with PSC (600 mg/kg i.p.). Treatment started 3 days before immunization and continued until the 40th day of experiment. Cyclophosphamide (CTX) (150 mg/kg/die) was injected i.p. on the 3rd, 4th, and 5th day after immunization with erythrocytes.
The animals were subdivided (6 animals each group) into the following experimental groups:
1) Non-immunized controls (CTRL);
2) Immunized controls (CTRL);
4) Immunized +CTX+PSC (600 mg/kg i.p.).
The determination of serum antibodies levels was carried out by agglutination reaction: the serum in 0.9% sodium chloride solution was diluted from 1:2 to 1:1024 and ram erythrocytes at a concentration of 5×10^8 /ml were added. The determination of antibodies was carried out 2 hrs after incubation at 37° C. Each sample was assayed twice (Tables 11 and 12).

[2] = test system: murine fibrosarcoma cells (WEHI 164 clone 13); test: Transplantable neoplasms: murine fibrosarcoma tumoral mass growth in BALB/c mice; assay type: in vivo
Procedure: Male adult BALB/c mice weighing 20 g were stabled under standard conditions (24°±1° C., 12 h light/dark cycle, free access to food and water). Handlings were made in such a way as to avoid stressful stimuli.
All animals, subdivided into groups of 6, were treated 4 weeks with a PSC dose (600 mg/kg). After a 2 week treatment, the mice were inoculated intramuscularly (i.m.) with murine fibrosarcoma WEHI 164 clone 13 cells or Lewis lung carcinoma in an amount of 1×10^5 cells. Treatment was continued two weeks after tumour inoculation. The mice were sacrificed and the tumoral mass growth and the development of metastases, if any, were evaluated.

peripheral lymphocytes = test: Blastization with phytohaemagglutinin (PHA) of peripheral lymphocytes of PSC-treated rats; assay type: in vivo, Sprague-Dawley rats; details: 600 mg/kg i.p. 15 days + PHA
Procedure: as §1, §2
Once the treatment with PSC previously described in the paragraph "Animals" was completed, the animals, both young and old, were sacrificed by decapitation and the blood collected in heparin-treated tubes. The blood samples were stratified on Ficoll-Paque gradient and centrifuged at 2500 rpm for 15 min. The lymphocytic cellular fraction was taken by suction and washed three times with a Lphysiological solution (0.9% NaCl). At the end of the treatment, the cells were resuspended in culture medium RPMI 1640 containing 10% FBS, counted (1×10^5 cells/0.1 ml/well) and incubated for 48 hrs at 37° C., in a 5% carbon dioxide environment. At the incubation end, mitogens concavaline A (ConA) and phytohaemagglutinin (PHA) were added to the cultures at a concentration of 1 μg/ml in a volume of 0.1 ml. Eighteen hours later, tritiated thymidine (0.01 ml) was added to the cultures, subsequently incubated for 3 hrs. […] Radioactivity (dpm) was measured 2 min. using a β-counter. […]

hepatic GSH = test: Test No. 4: dichloropropane (DCP) intoxication in vivo, hepatic GSH; design: species or system rat
Procedure: A test was carried out in vivo on four groups of four rats each, using, as a toxic substance, dichloropropane (DCP), the main constituent of several solvents. DCP is noxious both by ingestion and inhalation and has a notable toxicity to the liver, mediated by an almost total depletion of thiol groups, including those of GSH.
The experimental model involves the study of the effect of DCP toxicity in the rat, in respect of glutathione (GSH) concentration in the main target tissue: the liver.
Tests were carried out on four groups of rats. The first group of animals was administered 2 ml DCP/kg dissolved in oil (40% v/v) per os. Twenty-four hours after DCP administration, blood samples were taken for SGPT measurement, while the animals were sacrificed; small portions of liver were then excised and immediately deproteinized by homogenization in 6% PCA. The chromatographic analyses of GSH and GSSG (oxidized glutathione) were performed.
The second group of animals was treated with the test drug (600 mg/kg i.p.) two hours after DCP administration. The third and fourth groups were treated with N-acetyl-cysteine (NAC) (250 mg/kg i.p.) and, respectively, with glutathione (Tationil^R) (600 mg/kg i.p.).
An evaluation of the protective action of the test drug in respect of glutathione involvement in hepatic protection mechanisms was thus possible.

interleukin-2 (IL-2) = test: Interleukin-2 (IL-2) production following interleukin-1 (IL-1) i.p. injection in young and old rats; assay type: in vivo, Sprague-Dawley rats; details: i.p. treated groups
Procedure: as §1, §2
With a view to evaluating a further aspect of the immunological activity in PSC-treated (600 mg/kg) animals, according to the aforementioned scheme, an investigation was carried out on interleukin-2 (IL-2) response to the injection of IL-1 that, as known, stimulates IL-2 production from lymphocytes.
Once the treatment was completed, each rat was administered IL-1 (0.1 mg/kg, i.p.). One hour after injection, the animals were killed by decapitation, the blood was collected and centrifuged, and the plasma maintained at -20° C. until IL-2 dosing.
The evaluation of IL-2 production was based on an immunological assay, utilizing a specific antibody produced in heterologous species against rat IL-2. Samples were assayed twice.
The controls are rats treated only with IL-1.

[3] = test system: urethane-induced tumours of the lungs; test: Urethane-induced tumours of the lungs in albino Swiss mice; assay type: in vivo
Procedure: Male albino adult Swiss mice (20-25 g) were used. All animals were inoculated i.p. with urethane. The animals were treated with PSC (600 mg/kg) 15 days prior to and after inoculation. Once the treatment was completed, the animals were sacrificed, their lungs excised and subjected to necrohistologic examination.

[4] = 600 mg/kg i.p., 30 days' treatment, 15 days after urethane i.p.

For `CC(=O)SC[C@H](NC(=O)[C@@H]1CCC(=O)N1)C(=O)O` [PSC, 2-(S)-(2-pyrrolidone-5-(S)-carbonyl amido)-3-acetylmercapto propionic acid] (HELM PEPTIDE1{[Glp].C}|PEPTIDE2{[ac]}$PEPTIDE1,PEPTIDE2,2:R3-1:R2$$$V2.0), the “restoring immunological functionality (in words)” value ([1]; CTX-immunodepressed old rat) was “effective in restoring a correct immunological functionality”, the “antibodies levels (in words)” value ([1]; intraperitoneal, young and old rats) was “causes a considerable increase in antibodies levels both in young (Table 11) and old (Table 12) rats” and the “serum antibodies level (agglutination, Days from immunization)” value (from here on “serum antibodies level”) ([1]; old rats, day 12) was 2. The “serum antibodies level” value ([1]; old rats, day 20) was 8, the “serum antibodies level” value ([1]; old rats, day 29) was 32 and the “serum antibodies level” value ([1]; old rats, day 40) was 64. The “serum antibodies level” value ([1]; young rats, day 12) was 2, the “serum antibodies level” value ([1]; young rats, day 20) was 4 and the “serum antibodies level” value ([1]; young rats, day 29) was 20. For the same compound, the “serum antibodies level” value ([1]; young rats, day 40) was 20, the “tumoural growth, fibrosarcoma (in words)” value ([2]; 600 mg/kg) was “prevented tumoural growth; also recorded: significantly slows down the growth of fibrosarcomatous tumours in the rat” and the “Tumoral mass diameter, 15th day” value ([2]; 600 mg/kg i.p., 30 days' treatment) was 0.6 ± 0.03 cm. For the same compound, the “blastization (tritiated thymidine incorporation), Young” value (peripheral lymphocytes) was 703 ± 44 DPM × 100, the “blastization (tritiated thymidine incorporation), Elderly” value (peripheral lymphocytes; *P < 0.05) was 533 ± 29 DPM × 100 and the “normalization of hepatic GSH (in words)” value (hepatic GSH; DCP-treated rats) was “could not normalize the values of hepatic GSH”. The “GSH, average values” (hepatic GSH; liver, DCP 2 ml/kg per os + 600 mg/kg i.p.) was 2.7 nmol/mg protein, the “GSH, individual animals” value (hepatic GSH; liver, DCP 2 ml/kg per os + 600 mg/kg i.p., animals 1-4, listed as (I) (R = CH3), 600 mg/kg) was 2.6 nmol/mg protein and 2.4 nmol/mg protein and 3.4 nmol/mg protein and the “IL-2 levels (in words)” value (interleukin-2 (IL-2)) was “significant increases were detected in the groups treated i.p. with PSC”. For the same compound, the “Mice with neoplasms, %” value [3, 4] was 50%, the Mice with neoplasms/group [3, 4] was 3/6 and the “development of tumours of the lungs (in words)” value ([3]; chronic treatment) was “significantly slowed down the development of tumours of the lungs; also recorded: its action seems most potent on the tumours directly induced by contact with a chemical carcinogen, such as urethane”.
